According to PubChem BioAssay AID330 (DTP/NCI, 2004):
Where “and” joins values, the source holds several entries; their conditions need not be identical. Identical values can stand only once. Inconclusive results and toxic doses are left out.

Tested on: P388 leukemia ip, CD2F1 mice, survival T/C
Assay: NCI In Vivo Anticancer Drug Screen. Data for tumor model P388 Leukemia (intraperitoneal) in CD2F1 (CDF1) mice
Settings: endpoint: median survival time, higher = longer survival
Summary of the method: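 Mice carrying the transplanted tumor received test compound or vehicle. Survival was recorded in each group, and the value is the treated-group measurement divided by that of the vehicle-treated control group.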

[1] = dose: 50.0 mg/kg/injection, schedule: Q01DX005 (ip), vehicle: saline with Tween-80
[2] = dose: 100.0 mg/kg/injection, schedule: Q01DX005 (ip), vehicle: saline with Tween-80
[3] = dose: 200.0 mg/kg/injection, schedule: Q01DX005 (ip), vehicle: saline with Tween-80
[4] = dose: 50.0 mg/kg/injection, schedule: Q01DX009 (ip), vehicle: saline
[5] = dose: 100.0 mg/kg/injection, schedule: Q01DX009 (ip), vehicle: saline
[6] = dose: 25.0 mg/kg/injection, schedule: Q01DX005 (ip), vehicle: saline with Tween-80
[7] = dose: 100.0 mg/kg/injection, schedule: Q01DX009 (ip), vehicle: saline with Tween-80
[8] = dose: 200.0 mg/kg/injection, schedule: Q01DX009 (ip), vehicle: saline with Tween-80
[9] = dose: 50.0 mg/kg/injection, schedule: Q01DX009 (ip), vehicle: Klucel (hydroxypropylcellulose) (HPC)
[10] = dose: 100.0 mg/kg/injection, schedule: Q01DX009 (ip), vehicle: Klucel (hydroxypropylcellulose) (HPC)
[11] = dose: 200.0 mg/kg/injection, schedule: Q01DX009 (ip), vehicle: Klucel (hydroxypropylcellulose) (HPC)

SMILES: CC(C)C1OCC(CCl)O1 (configuration not stated)
- T/C [1]: 104 % of control
- T/C [2]: 100 % of control
- T/C [3]: 104 % of control

SMILES: NNC(=S)NCCN1CCOCC1
- T/C (dose: 50.0 mg/kg/injection, schedule: Q01DX005 (ip), vehicle: saline): 105 % of control
- T/C (dose: 100.0 mg/kg/injection, schedule: Q01DX005 (ip), vehicle: saline): 105 % of control
- T/C (dose: 200.0 mg/kg/injection, schedule: Q01DX005 (ip), vehicle: saline): 100 % of control

SMILES: CC(O)CC(c1ccccc1)C(C(=O)O)c1ccccc1 (configuration not stated)
- T/C [4]: 108 % of control
- T/C [5]: 101 % of control
- T/C (dose: 200.0 mg/kg/injection, schedule: Q01DX009 (ip), vehicle: saline): 95 % of control

SMILES: Cc1cc(Cl)c2c(N(C)C)cccc2n1
- T/C (dose: 50.0 mg/kg/injection, schedule: Q01DX009 (ip), vehicle: acid diluted with saline): 106 % of control
- T/C (dose: 100.0 mg/kg/injection, schedule: Q01DX009 (ip), vehicle: acid diluted with saline): 93 % of control

SMILES: CCN(CC)CCN=c1nc(/C=C\C=C\NN(C)C(=S)SC)c(C)nn1C
- T/C (dose: 6.25 mg/kg/injection, schedule: Q01DX005 (ip), vehicle: saline with Tween-80): 103 % of control
- T/C (dose: 12.5 mg/kg/injection, schedule: Q01DX005 (ip), vehicle: saline with Tween-80): 87 % of control
- T/C [6]: 89 % of control
- T/C [3]: 90 % of control

SMILES: COc1cccc2c1C(=O)c1c(O)c3c(c(O)c1C2=O)CC(O)(/C(CO)=N/NC(=O)CCC(=O)N/N=C(\CO)C1(O)Cc2c(O)c4c(c(O)c2C(OC2CC(N)C(O)C(C)O2)C1)C(=O)c1c(OC)cccc1C4=O)CC3OC1CC(N)C(O)C(C)O1 (configuration not stated)
- T/C (dose: 0.78 mg/kg/injection, schedule: Q01DX009 (ip), vehicle: water): 152 % of control
- T/C (dose: 1.56 mg/kg/injection, schedule: Q01DX009 (ip), vehicle: water): 170 % of control and 196 % of control
- T/C (dose: 2.35 mg/kg/injection, schedule: Q04DX003 (ip), vehicle: water): 110 % of control
- T/C (dose: 3.13 mg/kg/injection, schedule: Q01DX009 (ip), vehicle: water): 218 % of control and 222 % of control
- T/C (dose: 4.7 mg/kg/injection, schedule: Q04DX003 (ip), vehicle: water): 114 % of control
- T/C (dose: 6.25 mg/kg/injection, schedule: Q01DX009 (ip), vehicle: water): 114 % of control and 309 % of control
- T/C (dose: 9.4 mg/kg/injection, schedule: Q04DX003 (ip), vehicle: water): 121 % of control and 124 % of control
- T/C (dose: 12.5 mg/kg/injection, schedule: Q01DX009 (ip), vehicle: water): 102 % of control and 86 % of control
- T/C (dose: 18.8 mg/kg/injection, schedule: Q04DX003 (ip), vehicle: water): 154 % of control
- T/C (dose: 37.5 mg/kg/injection, schedule: Q04DX003 (ip), vehicle: water): 181 % of control
- T/C (dose: 75.0 mg/kg/injection, schedule: Q04DX003 (ip), vehicle: water): 118 % of control

SMILES: O=C1c2ccccc2C(=O)N1CNc1cccc(NCN2C(=O)c3ccccc3C2=O)c1
- T/C [7]: 110 % of control
- T/C [8]: 95 % of control
- T/C (dose: 400.0 mg/kg/injection, schedule: Q01DX009 (ip), vehicle: saline with Tween-80): 100 % of control

SMILES: CC1(c2ccccc2)NC(=O)NC1=O (configuration not stated)
- T/C (dose: 50.0 mg/kg/injection, schedule: Q01DX001 (ip), vehicle: saline): 100 % of control
- T/C (dose: 100.0 mg/kg/injection, schedule: Q01DX001 (ip), vehicle: saline): 110 % of control
- T/C (dose: 200.0 mg/kg/injection, schedule: Q01DX001 (ip), vehicle: saline): 115 % of control

SMILES: O=C1c2c(Cl)c(Cl)c(Cl)c(Cl)c2C(=O)N1c1ccccc1-c1ccccc1
- T/C (dose: 87.5 mg/kg/injection, schedule: Q01DX009 (ip), vehicle: saline with Tween-80): 97 % of control
- T/C (dose: 175.0 mg/kg/injection, schedule: Q01DX009 (ip), vehicle: saline with Tween-80): 97 % of control
- T/C (dose: 350.0 mg/kg/injection, schedule: Q01DX009 (ip), vehicle: saline with Tween-80): 97 % of control

SMILES: CCN(CC)Cc1c(OC)ccc2[nH]c3c4ccc(Cl)cc4ncc3c12
- T/C [6]: 109 % of control
- T/C [1]: 101 % of control
- T/C [2]: 106 % of control
- T/C [3]: 112 % of control

SMILES: CCCN1CN2C(C)C(c3ccccc3)OC2C(C)(C)C1 (configuration not stated)
- T/C (dose: 50.0 mg/kg/injection, schedule: Q01DX009 (ip), vehicle: saline with Tween-80): 112 % of control
- T/C [7]: 112 % of control
- T/C [8]: 117 % of control

SMILES: CN(/N=C\c1ccccc1)C(=N)N(C)/N=C/c1ccccc1
- T/C (dose: 100.0 mg/kg/injection, schedule: Q01DX001 (ip), vehicle: Klucel (hydroxypropylcellulose) (HPC)): 91 % of control
- T/C (dose: 200.0 mg/kg/injection, schedule: Q01DX001 (ip), vehicle: Klucel (hydroxypropylcellulose) (HPC)): 96 % of control

SMILES: Cc1c(Br)c(Br)nn1C(C)C(=O)N(C)C (configuration not stated)
- T/C [9]: 110 % of control
- T/C [10]: 99 % of control
- T/C [11]: 101 % of control

SMILES: CC(=O)OCC1OC(n2cnc3c(Cl)nc(Cl)nc32)C(OC(C)=O)C1OC(C)=O (configuration not stated)
- T/C (dose: 50.0 mg/kg/injection, schedule: Q01DX005 (ip), vehicle: Klucel (hydroxypropylcellulose) (HPC)): 102 % of control
- T/C (dose: 100.0 mg/kg/injection, schedule: Q01DX005 (ip), vehicle: Klucel (hydroxypropylcellulose) (HPC)): 102 % of control
- T/C (dose: 200.0 mg/kg/injection, schedule: Q01DX005 (ip), vehicle: Klucel (hydroxypropylcellulose) (HPC)): 115 % of control

SMILES: Cc1cc(N)ccc1-n1cnc2c1c(=O)n(C)c(=O)n2C
- T/C (dose: 50.0 mg/kg/injection, schedule: Q01DX005 (ip), vehicle: water): 109 % of control
- T/C (dose: 100.0 mg/kg/injection, schedule: Q01DX005 (ip), vehicle: water): 111 % of control

SMILES: CCN(CC)CCOC(=O)c1ccc(NC(=O)Nc2ccc(C(=O)OCCN(CC)CC)cc2)cc1
- T/C (dose: 25.0 mg/kg/injection, schedule: Q01DX009 (ip), vehicle: saline): 102 % of control
- T/C [4]: 107 % of control
- T/C [5]: 118 % of control

SMILES: CC(=O)OC1(C)SCCN1C(N)=O (configuration not stated)
- T/C [9]: 99 % of control
- T/C [10]: 104 % of control
- T/C [11]: 100 % of control

SMILES: NNc1ccc2nccn2n1
- T/C (dose: 6.25 mg/kg/injection, schedule: Q01DX009 (ip), vehicle: saline with Tween-80): 95 % of control
- T/C (dose: 12.5 mg/kg/injection, schedule: Q01DX009 (ip), vehicle: saline with Tween-80): 101 % of control
- T/C (dose: 25.0 mg/kg/injection, schedule: Q01DX009 (ip), vehicle: saline with Tween-80): 94 % of control

SMILES: C/C1=C\CC/C(C)=C/CC/C(C)=C/CC(C)(C)/C=C/C1
- T/C (dose: 25.0 mg/kg/injection, schedule: Q01DX009 (ip), vehicle: saline + Tween-80 + alcohol): 112 % of control
- T/C (dose: 50.0 mg/kg/injection, schedule: Q01DX009 (ip), vehicle: saline + Tween-80 + alcohol): 112 % of control
- T/C (dose: 100.0 mg/kg/injection, schedule: Q01DX009 (ip), vehicle: saline + Tween-80 + alcohol): 111 % of control

SMILES: COc1cc2cc(c1Cl)N(C)C(=O)CC(O)C1(C)OC1C(C)C1CC(O)(NC(=O)O1)C(OC)/C=C/C=C(C)C2OC (configuration not stated)
- T/C (dose: 4.0 micrograms/kg/injection, schedule: Q01DX009 (ip), vehicle: distilled water + Tween-80 + alcohol): 97 % of control
- T/C (dose: 8.0 micrograms/kg/injection, schedule: Q01DX009 (ip), vehicle: distilled water + Tween-80 + alcohol): 104 % of control
- T/C (dose: 16.0 micrograms/kg/injection, schedule: Q01DX009 (ip), vehicle: distilled water + Tween-80 + alcohol): 97 % of control
- T/C (dose: 32.0 micrograms/kg/injection, schedule: Q01DX009 (ip), vehicle: distilled water + Tween-80 + alcohol): 107 % of control
- T/C (dose: 32.0 micrograms/kg/injection, schedule: Q01DX009 (ip), vehicle: distilled water + alcohol): 99 % of control
- T/C (dose: 64.0 micrograms/kg/injection, schedule: Q01DX009 (ip), vehicle: distilled water + alcohol): 101 % of control
- T/C (dose: 128.0 micrograms/kg/injection, schedule: Q01DX009 (ip), vehicle: distilled water + alcohol): 101 % of control

SMILES: COc1cccc2c1C(=O)OC2=O
- T/C (dose: 12.5 mg/kg/injection, schedule: Q01DX009 (ip), vehicle: Klucel (hydroxypropylcellulose) (HPC)): 105 % of control
- T/C (dose: 25.0 mg/kg/injection, schedule: Q01DX009 (ip), vehicle: Klucel (hydroxypropylcellulose) (HPC)): 105 % of control
- T/C [9]: 112 % of control
- T/C [10]: 97 % of control
- T/C [11]: 96 % of control

SMILES: CN(C)CCC(=O)c1cccs1
- T/C [4]: 107 % of control
- T/C [5]: 105 % of control

SMILES: C=C1C(=O)OC2/C=C(\C)CC/C=C(/C)CC(OC(=O)/C(=C/CO)CO)C12 (configuration not stated)
- T/C (dose: 5.0 mg/kg/injection, schedule: Q01DX009 (ip), vehicle: Klucel (hydroxypropylcellulose) (HPC)): 108 % of control and 113 % of control
- T/C (dose: 10.0 mg/kg/injection, schedule: Q01DX009 (ip), vehicle: Klucel (hydroxypropylcellulose) (HPC)): 106 % of control and 115 % of control (2×)
- T/C (dose: 20.0 mg/kg/injection, schedule: Q01DX009 (ip), vehicle: Klucel (hydroxypropylcellulose) (HPC)): 106 % of control and 117 % of control
- T/C (dose: 40.0 mg/kg/injection, schedule: Q01DX009 (ip), vehicle: Klucel (hydroxypropylcellulose) (HPC)): 113 % of control and 117 % of control and 89 % of control
